Values joined by “and” are separate entries in the source; they are usually repeats but may differ in a detail not shown here. Equal values may be shown once. Read-outs that look alike come from different tables or passages of the source.
Biological target: T1, hGLUT8 (Homo sapiens, UniProt Q9NY64, E7R/E8R)
T1 construct: expressed in transfected cells; host or cells: HEK293 (HEK293-FLIP, native hGLUT1 knocked down)
T1 sequence (Q9NY64 1-477 E7R/E8R): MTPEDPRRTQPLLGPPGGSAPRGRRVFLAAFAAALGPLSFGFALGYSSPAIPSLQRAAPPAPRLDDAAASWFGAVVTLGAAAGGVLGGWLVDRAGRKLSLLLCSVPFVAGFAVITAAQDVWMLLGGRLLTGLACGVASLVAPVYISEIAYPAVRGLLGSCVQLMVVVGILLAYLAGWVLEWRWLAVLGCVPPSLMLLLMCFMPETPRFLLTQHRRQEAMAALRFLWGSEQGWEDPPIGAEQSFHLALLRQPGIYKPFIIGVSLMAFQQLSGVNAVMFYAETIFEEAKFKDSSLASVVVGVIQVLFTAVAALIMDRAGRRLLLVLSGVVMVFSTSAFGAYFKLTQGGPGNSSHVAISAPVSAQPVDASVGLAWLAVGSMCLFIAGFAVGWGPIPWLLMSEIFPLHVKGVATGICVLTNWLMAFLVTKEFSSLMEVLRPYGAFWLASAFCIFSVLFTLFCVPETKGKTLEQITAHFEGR
Assay: [3H]-D-fructose uptake by HEK293 cells overexpressing hGLUT8
Format: cell-based
Source text: Generation of HEK293 cells overexpressing PfHT and human GLUTs 1–4 were described elsewhere. Briefly, HEK293 cells were transfected with pcDNA3.1 FLII12Pglu-7006 (Addgene), containing the fluorescence resonance energy transfer (FRET) glucose sensor (HEK293-FLIP) and PfHT, human GLUT1 (hGLUT1), hGLUT2, hGLUT3, hGLUT4, hGLUT5 or hGLUT8 using Optifect (Life Technologies) according to manufacturer’s specifications. To increase retention of GLUT8 at the plasma membrane, the dileucine sorting signal E^7E^8XXXLL was modified to R^7R^8XXXLL as described in [17]. Stable transfectants were selected for G418 and hygromycin resistance to select for FRET sensor and hexose transporter, respectively. HEK293-FLIP cells were also used to generate cells stably transfected with FLAG-tagged PfHT (FTPfHT). FLAG tag ([…]) followed by a triple glycine linker and a tobacco etch virus (TEV) protease site (ENLYFQS) followed by a triple glycine linker was added to the N-terminus of PfHT via PCR [18] using Phusion Hot Start II High-Fidelity DNA Polymerase (Fisher Scientific). Single clones were selected by comparing their abilities to transport glucose as assayed via FRET and radiolabeled hexose uptake. In all cell lines, except for HEK293 cells overexpressing hGLUT1 and hGLUT5, native hGLUT1 was knocked down using shRNA as described elsewhere. Transcript levels of the individual GLUTs expressed in each cell line are as described in [13, 15] and in S1 Fig.
Glucose uptake by P. falciparum was performed essentially as described. P. falciparum strain 3D7 was cultured in 100 mm tissue culture dishes (Techno Plastic Products) in a 2% suspension of human erythrocytes and RPMI 1640 medium until reaching > 7.5% parasitemia. Cells were pelleted via centrifugation and resuspended in RPMI 1640 medium. To determine the uptake of radiolabeled glucose into the parasite, parasites were isolated from infected erythrocytes by permeablization with saponin (0.05 w/v), followed by centrifugation, aspiration of supernatant and washing of the pellet 3X with saline solution (135 mM NaCl, 2 mM KCl, 25 mM HEPES, 0.2 mM glucose and 1 mM MgCl2; pH 7.1) to remove cellular debris. WU-1 or DMSO vehicle were added to 100 μl parasites (resuspended in saline) 5 min prior to the addition of 100 μl [^14C]2-DOG (0.2- μCi/ml final concentration). 2-DG uptake was stopped after 2 min by layering the entire reaction over 300 μl of an oil mixture (5:4 mix of dibutyl phthalate / dinonyl phthalate) in Eppendorf tubes and centrifuged at 15,850 × g for 2 mins. The ratio of the estimated intracellular concentration of radiolabel relative to the extracellular concentration were calculated as described. Uptake of radiolabeled hexose into HEK293 cells was measured in glucose-free HBSS as described previously. Briefly, cells were plated at 400,000 cells/well overnight at 37°C in 24-well plates pre-treated with PEI. After 30-min incubation at 37°C in glucose-free HBSS in the presence of vehicle or increasing concentrations of compound, 2-DG uptake was measured in glucose-free HBSS for 4 min at 37°C. Cultures were washed in ice-cold 1X PBS and lysed in 0.1% Triton X-100 in 1X PBS. Radiolabeled hexose uptake was determined by liquid scintillation counting (Ultima Gold, Thermo Fisher) and normalized to total protein per well. Uptake data are plotted as percent uptake relative to vehicle-treated cells. Kinetic analyses were performed using the indicated concentrations of substrate and WU-1, with quenching of uptake after 1 min incubation. Incubation times had been previously determined as being in the linear range of time-dependent radiolabeled hexose uptake (2 min for 2-DG uptake into freed parasites; 2 and 4 min for D-Frc and 2-DG uptake HEK cell lines, respectively). Data were fit by least squares nonlinear regression analysis using GraphPad Prism 6.0 software.

[1] = HEK293, 2 min, read-out: D-frc Uptake AVE

## Cc1ccc(S(=O)(=O)CCNC(=O)c2c(-c3c(Cl)cccc3Cl)noc2C)cc1 [WU-1, 3-(2,6-dichlorophenyl)-5-methyl-N-[2-(4-methylbenzenesulfonyl)ethyl]-1,2-oxazole-4-carboxamide]
GLUT8, D-frc Uptake, average of Expt 1-3, read-out: AVE IC50
  IC50: 22 µM
GLUT8, D-frc Uptake, single experiments Expt 1-3, read-out: IC50
  IC50: 23.3 µM and 19.7 µM and 23.1 µM
GLUT8 cell line, read-out: IC50, D-fructose (Frc) uptake
  IC50: 22 ± 1.2 µM
HEK293, 2 min, GLUT8, concentration 0.001 µM, Expt 1-3, read-out: D-frc Uptake AVE
  remaining activity at 0.001 µM: 100%
HEK293, 2 min, GLUT8, concentration 0.313 µM, read-out: D-frc Uptake AVE
  remaining activity at 0.313 µM: 96.4%
HEK293, 2 min, GLUT8, concentration 0.625 µM, read-out: D-frc Uptake AVE
  remaining activity at 0.625 µM: 90%
HEK293, 2 min, GLUT8, concentration 1.250 µM, read-out: D-frc Uptake AVE
  remaining activity at 1.25 µM: 89.1%
HEK293, 2 min, GLUT8, concentration 2.500 µM, read-out: D-frc Uptake AVE
  remaining activity at 2.5 µM: 86%
HEK293, 2 min, GLUT8, concentration 5.0 µM, read-out: D-frc Uptake AVE
  remaining activity at 5 µM: 78.5%
HEK293, 2 min, GLUT8, concentration 10.0 µM, read-out: D-frc Uptake AVE
  remaining activity at 10 µM: 71.4%
HEK293, 2 min, GLUT8, concentration 20 µM, read-out: D-frc Uptake AVE
  remaining activity at 20 µM: 53%
HEK293, 2 min, GLUT8, concentration 40 µM, read-out: D-frc Uptake AVE
  remaining activity at 40 µM: 46.1%
HEK293, 2 min, GLUT8, concentration 80 µM, read-out: D-frc Uptake AVE
  remaining activity at 80 µM: 30.5%
HEK293, 2 min, GLUT8, concentration 160 µM, read-out: D-frc Uptake AVE
  remaining activity at 160 µM: 24.8%
HEK293, 2 min, GLUT8, concentration 225 µM, read-out: D-frc Uptake AVE
  remaining activity at 225 µM: 22.6%
[1]
  remaining activity at 0.625 µM: 91.6%
  remaining activity at 2.5 µM: 84.6%
Calculated from IC50s
  Selectivity Index (PfHT over GLUT8), Frc: 4.4
